We go through seven compounds from PubChem BioAssay (NCI).

The structures appear in SMILES notation.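 All cell lines were grown in 96-well plates and treated with compound for 48 hours. At the GI50, growth is halved. The concentration for full growth arrest is given as TGI.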

Some test systems named below: OVCAR-8 ovarian; SN12C renal; NCI-H460 lung; KM12 colon; OVCAR-3 ovarian; U251 CNS; RPMI-8226 leukemia; DU-145 prostate; MDA-N; OVCAR-4 ovarian; A498 renal; MDA-MB-231 breast.
Common to all, as to assay: NCI tumour cell line growth inhibition, 48 h

For the compound `CC(C)=CCC/C(C)=C/C=C/C(C)=C/C1C[C@@]2(C(O)O1)[C@H](CCCO)/C(=C(/C)C=O)CC[C@]2(C)O` (stereo partly drawn), the TGI in the experiment with OVCAR-8 ovarian stood at 51 µM; in the experiment on SN12C renal it was 30.8 µM; in the experiment with NCI-H460 lung, 25.5 µM.
In the case of `CCOC(=O)c1csc(NC(=O)C(C)N2CCOCC2)n1` (stereo not drawn), the TGI with KM12 colon, in the experiment on OVCAR-3 ovarian, with OVCAR-8 ovarian, in the experiment with U251 CNS, in the experiment with RPMI-8226 leukemia and in the experiment on DU-145 prostate was over 100 µM in each case. The TGI in the experiment with NCI-H460 lung, in the experiment with MDA-N, in the experiment with OVCAR-4 ovarian, in the experiment on A498 renal and with MDA-MB-231 breast was over 100 µM each time.
Regarding `C/C(=N\NC(=S)N1CCOCC1)c1nc2ncccc2[nH]1`, the TGI with KM12 colon is over 100 µM; with OVCAR-3 ovarian, over 100 µM; in the experiment on OVCAR-8 ovarian, 80.2 µM; in the experiment with U251 CNS, 81.8 µM; with SN12C renal, over 100 µM; in the experiment on RPMI-8226 leukemia it was over 100 µM. The TGI in the experiment on DU-145 prostate, in the experiment with NCI-H460 lung, with MDA-N, in the experiment with OVCAR-4 ovarian, in the experiment on A498 renal and in the experiment on MDA-MB-231 breast was over 100 µM throughout.
Turning to `Cc1cc(Nc2ccc(Cl)cc2)nc(NCCCNc2ccnc3cc(Cl)ccc23)n1`, the GI50 was 1.5 µM with U251 CNS and 1.84 µM in the experiment with DU-145 prostate. The TGI with U251 CNS is 2.88 µM; with DU-145 prostate, 3.35 µM.
Regarding `COC(=O)C(NC(=O)c1ccccc1)C(c1c(O)cc(O)cc1O)P(=O)(OC)OC` (stereo not drawn), the TGI in the experiment with KM12 colon, with OVCAR-8 ovarian, with U251 CNS, in the experiment on SN12C renal, in the experiment on RPMI-8226 leukemia and with NCI-H460 lung was over 100 µM each time. In addition, the TGI with OVCAR-4 ovarian and with A498 renal was over 100 µM in each case.
Regarding `NC(Cc1ccccc1CP(=O)(O)O)C(=O)O` (stereo not drawn), the TGI in the experiment on KM12 colon, in the experiment with OVCAR-3 ovarian, with OVCAR-8 ovarian, in the experiment with U251 CNS, in the experiment on SN12C renal and in the experiment with RPMI-8226 leukemia was over 100 µM in each case. For the same compound, the TGI in the experiment on DU-145 prostate, in the experiment on NCI-H460 lung, in the experiment on MDA-N, with OVCAR-4 ovarian and in the experiment on MDA-MB-231 breast was over 100 µM each time.
Consider `CCN(CC)CCNc1ccc([N+](=O)[O-])c2sc3cc(Cl)ccc3c(=O)c12`, for which the GI50 in the experiment with KM12 colon was 6.77 µM; in the experiment with OVCAR-3 ovarian, 4.62 µM; with SN12C renal, 2.05 µM; with RPMI-8226 leukemia, 2.32 µM; in the experiment with DU-145 prostate, 7.68 µM; in the experiment on A498 renal, 5.31 µM. Further, the GI50 in the experiment on MDA-MB-231 breast was 1.74 µM. Also, the TGI was 53.6 µM in the experiment with KM12 colon; 32.3 µM in the experiment with OVCAR-3 ovarian; 6.58 µM with SN12C renal; 6.55 µM with RPMI-8226 leukemia; 25.1 µM in the experiment on DU-145 prostate; 25.6 µM with A498 renal. The same compound yielded a TGI in the experiment on MDA-MB-231 breast of 5.01 µM.
